According to patent publication US10695409B2, “Universal cancer peptides derived from telomerase” (INVECTYS, priority 2012, dated 2020):

Key:
CD4 T cells [1] = experiment: Ex vivo IFN-γ ELISPOT of CD8 depleted spleen lymphocytes from TERT DNA-immunized mice; type: in vivo, A2/DR1 mice; conditions: mice immunized with DNA encoding TERT
Protocol: (5A-5B), A2/DR1 mice (n=8) were immunized twice with a DNA encoding TERT.
(5B), CD8 depleted spleen lymphocytes from DNA-immunized mice were assayed in ex vivo IFN-γ ELISPOT. Columns mean of triplicate from 4 mice; bars, SD.
To study the processing of UCP, A2/DR1 mice were immunized with a pTrip-TERT DNA (100 μg) at days 0 and 14 as previously reported (Adotevi et al, 2010). In some experiment CD4 T cells were depleted with anti-CD4 mAb treatment (clone GK1.5) prior DNA immunization. For UCP immunization, mice were injected with 100 μg of each UCP emulsified in incomplete Freund adjuvant (IFA, Sigma-Aldrich, France). In some experiments, 50 μg of pY988 peptide was co-injected with 100 μg of each UCP in IFA. All peptide vaccinations were done subcutaneously (s.c) at the right abdominal flank. Eight to ten week-old mice were bred and maintained in our animal facilities. All experiments were done according to the good laboratory practices defined by animal experimentation rules in France.
Ex vivo pentamer staining was performed as previously described (Adotevi et al, 2010; Adotevi et al, 2006). Cells were stained with PE-conjugated pY988 and pY572 HLA-A2.1 pentamer (ProImmune, UK). After cell staining, samples were analyzed by flow cytometry on a FACS Canto II (BD Biosciences, France) and using Diva software. […]
The inventors and others have previously reported that the use of humanized HLA transgenic mice models to screen for human tumor antigens represents a potent alternative to optimize “reverse immunology” approaches for epitope identification (Adotevi et al, 2006; Osen et al, 2010). […] To assess whether UCPs can be endogenously processed from the TERT protein, the inventors performed immunizations with a plasmid DNA encoding the full length TERT sequence and the UCP-specific CD4 splenocytes were monitored by a five-day 3H-thymidine incorporation assay. […] To this end, freshly isolated CD4 T cells from UCP-vaccinated mice were cultured in the presence of syngenic iDC pulsed or not with UCP and cytokines production was measured.

CD4 T cells [2] = experiment: Avidity of UCP-specific CD4 T cells from UCP-immunized mice, IFN-γ ELISPOT; type: in vivo, A2/DR1 mice; conditions: vaccinated once, ~1 μg peptide
Protocol: (5C-5D), Mice (3-4/group) were immunized once with each UCP in IFA.
(5D), Isolated CD4 T cells were cultured ex vivo with increasing concentrations of peptide as indicated. IFN-γ production was measured by ELISPOT. Curves, mean responses from 3 mice, bars, SD.
(5E), Mice were vaccinated once with low dose of UCP as indicated. UCP-specific T cell responses were evaluated in spleen by ex vivo IFN-γ ELISPOT.
(§1) To study the processing of UCP, A2/DR1 mice were immunized with a pTrip-TERT DNA (100 μg) at days 0 and 14 as previously reported (Adotevi et al, 2010). In some experiment CD4 T cells were depleted with anti-CD4 mAb treatment (clone GK1.5) prior DNA immunization. For UCP immunization, mice were injected with 100 μg of each UCP emulsified in incomplete Freund adjuvant (IFA, Sigma-Aldrich, France). In some experiments, 50 μg of pY988 peptide was co-injected with 100 μg of each UCP in IFA. […]
(§2) Ex vivo pentamer staining was performed as previously described (Adotevi et al, 2010; Adotevi et al, 2006). […] After cell staining, samples were analyzed by flow cytometry on a FACS Canto II (BD Biosciences, France) and using Diva software. […]
Next, to assess the avidity of UCP-specific CD4 T cell, freshly purified CD4 T cells from UCP-immunized mice were cultured in the presence of increasing concentrations of peptide and the number of specific IFN-γ producing CD4 T cells was measured by ELISPOT. […]

[3] = tested on: UCP-specific CD4 T cell clones; experiment: TNF secretion of UCP-specific CD4 T cell clones from cancer patient, flow cytometry; type: cell-based, human; conditions: CD4 T cell clones with cognate peptide, 5 h, Brefeldin A; read-out: peptide concentration at half-maximal TNF secretion
Protocol: T cell clones were obtained by limiting dilution of cancer patients T cell lines stimulated one time with the pool of UCPs. (2A and 2C) Percentage of TNF-producing T cells and of T cell clones isolated from patients GE001 in response to 10 μM of the relevant UCP; 10^5 T cells were incubated for 5 h in the presence of Brefeldin A, stained with CD4 antibody, fixed, and stained with anti-TNF antibody in a permeabilization buffer; 10^4 T cells were then analyzed in flow cytometry. (2B and 2D) Reactivity of the CD4 T cell clones in response to relevant UCP. CD4 T cell clones were culture with a range of the indicated peptide concentration. TNF secretion was assessed 5 h in the presence of Brefeldin A, by flow cytometry. (2E) Detection of cytokines produced by GE001.36 T cell clone in response to 10 μM of UCP4 using human ten-plex cytokines assay. […]
For intracytoplasmic cytokine staining, after a 5-h stimulation period with or without 10 μM peptide, T cells were labeled with anti-CD4 (BD Bioscience, USA) and anti-TNF-α (ebioscience, USA) using Cytofix/Cytoperm KIT (BD Bioscience). […] Samples were acquired on a FACS Canto II (BD Biosciences) and analyzed with the DIVA software. […]

[4] = tested on: blood lymphocytes from NSCLC patients and healthy volunteers; experiment: Spontaneous UCP-specific T cell responses, IFN-γ ELISPOT after one week stimulation; type: cell-based, human; conditions: frequency of T cell responses
HLA-DR molecules = experiment: HLA-DR binding assay, competitive ELISA, summary over the alleles tested; set-up: species or system human; conditions: RA intermediate 100-500, low <100
Protocol: (§3) Synthetic peptides (>80% purity) were purchased from Activotec (Cambridge, United Kingdom). The binding capacity to HLA-DR molecules was assessed by competitive ELISA as previously reported (Wang et al).
(§4) To predict the existence of CD4 epitopes within the amino acid sequence of TERT capable of binding to multiple HLA-DR molecules, the inventors have combined results from three algorithms Syfpeithi, NetMHCpan-2.1 and NetMHC2.2. They have selected four 15-mers peptide sequences referred as UCP1 to UCP4 that scored high in the probability scale for their binding capacity to the commonly found human HLA-DR alleles (Table 1). […] Data are expressed as relative activity RA (ratio of the IC50 of UCPs to the IC50 of the reference peptide) and are the means of three experiments. Good binders have a […] and weak binder are […].
Thus, according to phenotypic frequencies of the 10 prevalent HLA-DR antigens, these peptides could cover more than 90% of population (Wang et al).

[5] = tested on: immature bone marrow-derived DCs; experiment: In vitro DC-CD4 T cell co-culture; type: cell-based, A2/DR1 mice; conditions: CD4 T cells from UCP2/IFA versus IFA injected mice
Protocol: 8B, Schema of the in vitro DC-CD4 T cell co-culture.
8C, IFN-γ and GM-CSF production measured by ELISA in the supernatant.
8D, Expression of CD86 and HLA-DR on CD11c+ DC.
8E, Interleukin 12 production measured in supernatant by ELISA.
Spleen or lymph nodes CD11c+ DCs from peptide-immunized mice were directly analyzed for co-stimulatory receptor expression. In some experiments, immature bone marrow-derived DCs (iDC) from A2/DR1 mice were cultured 15-h with CD4 T cells from mice immunized with UCP or IFA alone and then stained for cell surface expression of co-stimulatory receptors and cytokines production.
The induction of dendritic cell activation represents one major helper mechanism used by CD4+ Th1 cells to sustain antigen presentation and provide costimulatory signals to the CTLs. This is referred as the “ménage à trois” model (Ridge et al, 1998). To test this mechanism, the inventors have analyzed the expression of co-stimulating receptors on DCs from mice immunized with the mix of pY988+/−UCP2. […] In a second set of experiments, isolated CD4 T cells from UCP2/IFA or IFA injected mice were co-cultured with syngenic iDCs as shown in FIG. 8B. As expected, UCP2-specific CD4 T cells produced significant amounts of Th1 cytokines such as IFN-γ and GM-CSF (FIG. 8C).

HLA-DR DR3 = experiment: HLA-DR binding assay, competitive ELISA; set-up: species or system human; conditions: means of three experiments
Protocol: as §3, §4

[6] = tested on: pY988-specific CD8 T cells; experiment: Co-immunization pY988 plus UCP: pY988-specific CTL response by pentamer staining and IFN-γ ELISPOT; type: in vivo, A2/DR1 mice; conditions: pY988 plus UCP in IFA versus pY988/IFA alone, day 10, spleen
From the text: Mice (3/group) were immunized either with pY988 plus each UCP in IFA or with pY988/IFA alone and the immune responses were monitored ten days later in the spleen. 6A, freshly isolated CD8 T cells were stained with TERT pY988/A2+ pentamer. Representative flow cytometry dot plots (upper panel) and mean percentages of pY988/A2+ CD8 T cells (lower panel) are shown.
6B, Ex vivo detection of anti-pY988 CD8 T cells by IFN-γ ELISPOT.
as §1, §2
CD4 T cell helper functions are thought to be important for the generation of potent and sustained CTL responses (Shedlock et al, 2003). […] The pY988-specific CTL response was measured ex vivo by pentamer staining and ELISPOT assays. […]

HLA-DR DR11 = experiment: HLA-DR binding assay, competitive ELISA; set-up: species or system human; conditions: means of three experiments
HLA-DR DR13 = experiment: HLA-DR binding assay, competitive ELISA; set-up: species or system human; conditions: means of three experiments
Protocol: as §3, §4

HLA-DR DRB4 = HLA-DR DRB4 (Homo sapiens, UniProt P01903+P13762); experiment: HLA-DR binding assay, competitive ELISA; conditions: means of three experiments
Protocol: as §3, §4

Row | EC50 [3] | Relative affinity RA (ratio of the IC50 of UCPs to the IC50 of the reference peptide) (HLA-DR DR3) | Relative affinity RA (ratio of the IC50 of UCPs to the IC50 of the reference peptide) (HLA-DR DR11) | Relative affinity RA (ratio of the IC50 of UCPs to the IC50 of the reference peptide) (HLA-DR DR13) | Relative affinity RA (ratio of the IC50 of UCPs to the IC50 of the reference peptide) (HLA-DR DRB4) | Sequence | specific CD4 T cell responses detected (CD4 T cells [1]) | IFN-γ+ CD4 T cells after low dose vaccination (CD4 T cells [2]) | CD4 T cell responses to individual UCPs [4] | capacity to bind HLA-DR molecules (HLA-DR molecules) | DC activation and interleukin-12 production in presence of UCP2-specific CD4 T cells [5] | frequency of pY988/A2 pentamer+ CD8 T cells [6]
1 | – | – | – | – | – | GTAFVQMPAHGLFPW [UCP3] | in all immunized mice | stimulated potent IFN-γ+ CD4 T cells | – | – | – | –
2 | ~4 µM | – | – | – | – | KSVWSKLQSIGIRQH [UCP2, universal cancer peptide derived from TERT, 15-mer] | in all immunized mice | stimulated potent IFN-γ+ CD4 T cells | more immunogenic | able to bind every HLA-DR molecules tested | induced potent DCs activation | –
3 | – | 0.4 | 25 | – | – | PAAFRALVAQCLVCV (listed as Homo sapiens) [UCP1, universal cancer peptide derived from TERT, 15-mer] | – | – | – | able to bind every HLA-DR molecules tested | – | little impact
4 | < 0.1 µM | >500 | 0,3 | >500 | >500 | SLCYSILKAKNAGMS [UCP4, universal cancer peptide derived from TERT, 15-mer] | in all immunized mice | – | more immunogenic | – | – | –
